{
  "source": "patent US20050014824A1",
  "about": "“Pigment” (priority 2001, published 2005)",
  "key": {"[1]": {"tested_on": "enzymes from salmon intestines", "test": "hydrolysis of astaxanthin omega-3 fatty acid diester by enzyme mixture from salmon intestines, optical isomer distribution by HPLC of dicamphanates", "assay_type": "in vitro ADME, Salmo salar", "procedure": "As described in Example 1 below, hydrolysis experiments were performed with a diester of synthetic astaxanthin with omega-3 fatty acids and a crude enzyme preparation from salmon intestines in the same way as described before (NO-309386). The reaction products were analysed with regard to stereoisomer composition.\nA diester of astaxanthin was prepared by conventional chemical synthesis from commercially obtained synthetic astaxanthin and an omega-3 fatty acid concentrate containing more than 90% omega-3 fatty acids, mainly EPA (eicosapentaenoic acid) and DHA (docosahexaenoic acid). The astaxanthin used had been prepared by chemical synthesis, and the distribution of the optical isomers (3R,3′R), meso and (3S,3′S) was 25.9:50.2:23.9, respectively, determined as described for the diol fraction.\nThe starting astaxanthin diester was treated with a freshly prepared enzyme mixture from the intestines of recently fed salmon (Salmo salar) for 48 hours. The pigment was then separated into three fractions by preparative thin-layer chromatography; a diol fraction with both hydroxyl groups hydrolysed, a monoester fraction with one hydroxyl group hydrolysed, and a remaining diester fraction. The astaxanthin in the diol fraction was converted into the corresponding diesters of (−)-camphanic acid by reaction with (−)-camphanoyl chloride, and the distribution of astaxanthin optical isomers were determined by high-performance liquid chromatography (HPLC) of the dicamphanates. The astaxanthin in the monoester fraction was first converted to diol in a hydrolysis reaction catalysed by the enzyme cholesterol esterase and subsequently treated with (−)-camphanic acid and analysed as described above. Attempts to convert the astaxanthin in the remaining diester fraction to diol using cholesterol esterase were not successful, as complete conversion was not obtained. The distribution of optical isomers of astaxanthin in the remaining diester fraction was therefore not determined."}, "[2]": {"tested_on": "salmonid fishes", "conditions": "cited from earlier work"}, "[3]": {"conditions": "pigment fraction, enzyme treatment 48 hours, starting diester = before treatment"}},
  "data": [
    {"molecule": "CC1=C(/C=C/C(C)=C/C=C/C(C)=C/C=C/C=C(C)/C=C/C=C(C)/C=C/C2=C(C)C(=O)[C@@H](O)CC2(C)C)C(C)(C)C[C@H](O)C1=O", "note": "[Diol (after enzyme treatment)]", "values": [
      {"measurement": "predominant optical isomer of astaxanthin in the fraction (in words)", "setting": "[1]; after enzyme treatment", "value": "almost exclusively the (3R,3′R)-configuration, with traces of the meso-form"},
      {"measurement": "distribution of astaxanthin optical isomers: (3R,3′R)", "setting": "[1]; [3]", "value": 94.6},
      {"measurement": "distribution of astaxanthin optical isomers: meso", "setting": "[1]; [3]", "value": 5.4}
    ]},
    {"molecule": "CC1=C(/C=C/C(C)=C/C=C/C(C)=C/C=C/C=C(C)/C=C/C=C(C)/C=C/C2=C(C)C(=O)[C@@H](O)CC2(C)C)C(C)(C)C[C@H](O)C1=O", "note": "[astaxanthin]", "values": [
      {"measurement": "absorption and deposition in the flesh of the optical isomers", "setting": "[2]; in vivo", "value": "equally well absorbed and deposited"}
    ]},
    {"molecule": "CCCCCCCCCCCCCCCC(=O)O[C@H]1CC(C)(C)C(/C=C/C(C)=C/C=C/C(C)=C/C=C/C=C(C)/C=C/C=C(C)/C=C/C2=C(C)C(=O)[C@@H](OC(=O)CCCCCCCCCCCCCCC)CC2(C)C)=C(C)C1=O", "note": "[dipalmitate, of (3R,3′R)-astaxanthin]", "values": [
      {"measurement": "utilisation by salmonids", "setting": "[2]; diet containing the ester form, compared with dipalmitate of (3S,3′S)-astaxanthin", "value": "better than dipalmitate of (3S,3′S)-astaxanthin"}
    ]}
  ]
}
